In paper PMC11513854, “De novo GTP synthesis is a metabolic vulnerability for the interception of brain metastases” (Cell Reports Medicine, 2024):

Tests used:
[1] = test system: BT478 and BT530 tumor cells; assay: Dose-response with exogenous guanine supplementation; assay type: cell-based, human; conditions: guanine 12 μM in culture media
Source text: Created with BioRender.com. […] Comparisons were made via a two-tailed unpaired t test, n = 4 technical replicates, p value is indicated. N.s., not significant, ∗∗∗∗ = p < 0.0001. […] Comparisons were made via a two-tailed unpaired t test, n = 4 technical replicates. N.s., not significant. […] Data are presented as mean ± SD from 4 technical replicates. (E) Immunoblot confirmation of IMPDH (IMPDH1 + IMPDH2) knockout (KO) in patient-derived lung-BMICs. Cropped from single full blot. (F) Time-course proliferation assays of AAVS1 and IMPDH KO BT478 and BT530 cells. Comparisons were made via a two-tailed unpaired t test. Data are presented as mean ± SD from 4 technical replicates, ∗∗∗∗ = p < 0.0001. (G) Representative bar graphs depicting the sphere count per 200 cells of AAVS1 vs. IMPDH KO cells. Comparisons were made via a two-tailed unpaired t test, data are presented as mean ± SD from 4 technical replicates, ∗∗∗∗ = p < 0.0001. (H) Kaplan-Meier curves showing the overall survival probability (from primary cancer diagnosis to death) in a cohort of 30 patients with lung carcinoma who developed BM, for IMPDH2 very high vs. very low expression (1st and 3rd quartiles cutoff values: <114.86 and >210.74). The Cox regression model for survival analysis was used, p values (p) are shown. […]

[2] = Brain homogenate binding, equilibrium dialysis; assay type: in vitro ADME, mouse; conditions: 2 μM, 4 h, 37°C
Method: The samples were applied to a dialysis well plate and sealed with dialysis membrane. Dialysis buffer (100 mM sodium phosphate pH 7.4, 150 mM NaCl) was applied to opposite side of the membrane (receiver well of the plate), and samples were incubated at 37°C with 5% CO2 for 4 h. Following completion of incubation period, samples were recovered from each side of the dialysis membrane and processed by protein precipitation, and analysis by LC-MS/MS for compound concentration. A corresponding set of samples was also prepared and stop solution (acetonitrile containing 200 ng/mL tolbutamide and 200 ng/mL labetalol) was immediately added, and samples were obtained from each side of the dialysis plate for mass spectrometric analysis.

[3] = test system: MDR1; assay: Bi-directional permeability via MDR1-MDCKII cells; assay type: in vitro ADME; conditions: dog, MDCK-MDR1, pH 7.4; 2 μM (digoxin 10 μM), 2.5 h
Method: (§1) MDR1-MDCKII permeability assays were performed by Wuxi AppTec Co. Briefly, MDR1-MDCK1 cells were seeded onto polycarbonate membranes in 96-well insert system plates and allowed to develop into monolayers. […] The plate was incubated for 2.5 h (37°C, 5% CO2) and the media was sampled on either side and the compound present was quantified by LC-MS/MS and the concentrations were used to calculate the efflux ratio. Digoxin (10 μM), nadolol (2 μM), and metoprolol (2 μM) were used as controls.

[4] = test system: MDR1-MDCKII cells; assay: Bi-directional permeability via MDR1-MDCKII cells; assay type: in vitro ADME
Method: as §1

[5] = test system: IMPDH KO BT478 cells; assay: Dose-response assays using AAVS1 and IMPDH KO cells; assay type: cell-based, human; conditions: IMPDH1 and IMPDH2 knocked out
Source text: In parallel, we knocked out the safe-harbor locus, AAVS1, as a control cell line. Knockouts were validated by western blot (Figures 5E and S4D). Loss of IMPDH led to tumor cell death within 1 week of knockout (Figure 5F).
Guide RNAs (gRNAs) targeting AAVS1 (5′-[…]-3′) and IMPDH1 (5′- […]-3′) and IMPDH2 (5′-a[…]-3′) were obtained from TKOv3[76] and cloned into a single-gRNA lentiCRISPRv2 construct (Addgene 52961). Sequences were verified using Sanger sequencing. Each plasmid was packaged independently into lentivirus using second-generation packaging constructs as described previously.[77] BMICs were infected with lentivirus containing single-gRNA lentiCRISPRv2 constructs targeting AAVS1 or IMPDH1 or IMPDH2 (three gRNAs). Twenty-four hours post-infection, virus-containing media was replaced with fresh media containing puromycin (1–2 μg/mL) (ThermoFisher, Cat#A1113803) for 48–72 h. The knockout efficiency was validated by Western Blotting for evaluation of IMPDH protein expression.

[6] = test system: lung-BMICs; assay: Intracranial injection of lung-BMICs, daily oral gavage treatment; assay type: in vivo, mice; conditions: 100 mg/kg daily oral gavage from 24 h after injection; log rank n.s. [MPA], p = 0.0005 [Compound 3]
Method: The cells were injected intracranially to ensure that any survival benefit would be due to the compounds crossing the BBB and targeting BMICs in the brain.
All experimental procedures involving animal work has been reviewed and approved by McMaster University Animal Research Ethics Board. Non-obese diabetic-severe combined immunodeficient IL2r γ ^null (NSG) mice are used for all experiments. Equal numbers of male and female mice were used for all experiments. Healthy mice were 6–8 weeks at time of use. Mice are anesthetized by gas anesthesia using isoflurane (4% induction, 2.5% maintenance) before procedure. Cells were engineered to express firefly luciferase and were injected intracardially, orthotopically, or intracranially as previously described.[13]^,[14]^,[63]^,[64]^,[65] […] Mice are monitored weekly for signs of illness until endpoint.

| SMILES | BMIC viability with exogenous guanine supplementation [1] | % Unbound [2] | Papp A→B at 2.5 h, 2 μM [3] [×10⁻⁶ cm/s] | Papp B→A at 2.5 h, 2 μM [3] [×10⁻⁶ cm/s] | substrate for P-glycoprotein (ABCB1) ([4]; MDCK-MDR1 cell monolayer model) | anti-BMIC activity following IMPDH knockout [5] | survival advantage [6] | % Bound [2] | mass of compound following completion of the brain homogenate assay [2] | efflux ratio at 2.5 h, 2 μM [3] | Rank of Papp [4] | permeability for entering the brain ([4]; MDCK-MDR1 cell monolayer model) |
| --- | --- | --- | --- | --- | --- | --- | --- | --- | --- | --- | --- | --- |
| COc1c(C)c2c(c(O)c1C/C=C(\C)CCC(=O)O)C(=O)OC2 [MPA, Mycophenolic acid] | rescued BMIC viability | 34.1% | 26 | 10 | not significant substrates | lose their anti-BMIC activity | no survival advantage |  |  |  |  |  |
| COc1c(C)c2c(c(O)c1C/C=C(\C)CCC(=O)OCCN1CCCC1)C(=O)OC2 [Compound 3] | rescued BMIC viability | Not Recover ed | 14.8 | 12.5 | not significant substrates | lose their anti-BMIC activity | significant survival advantage | Not Recover ed | could not be detected | 0.848 | High | high permeability |
